Measurements as given in article PMC7887755, “Structure–Activity Relationships of Pyrazolo[1,5-a]pyrimidin-7(4H)-ones as Antitubercular Agents” (ACS Infectious Diseases, 2021).
In brackets after ≈: the same amount, converted by molar mass. Several values for one entry are separate records, joined by “and”; a condition that tells them apart may be missing. Equal values may be shown once. Read-outs that look alike come from different tables or passages of the source.

How the values were obtained:
Mtb H37Rv WT = assay: microbe, parasite or virus in culture; type: cell-based; details: Mycobacterium tuberculosis
Mtb strain H37Rv = assay: MIC against Mtb H37Rv under various media/carbon sources; type: cell-based; details: Mycobacterium tuberculosis
Mtb H37Rv [1] = assay: microbe, parasite or virus in culture; type: cell-based, Mycobacterium tuberculosis
HepG2 cells = details: 24 h
in vitro = details: human, 24 h
Mtb H37Rv [2] = assay: MIC under iron-depleted (DFO) or iron-replete (FeCl3) conditions; type: cell-based, Mycobacterium tuberculosis
[3] = system: DNA damage responsive recA and radA reporters; type: cell-based, Mycobacterium tuberculosis
[4] = system: cell wall responsive iniBAC promoter (piniB-LUX reporter strain); type: cell-based, Mycobacterium tuberculosis
[5] = Mycobacterium tuberculosis, H37RV, read-out: MIC in 7H9 ADC
[6] = Mycobacterium tuberculosis, H37RV, read-out: MIC in 7H9 GCas
[7] = read-out: Cytotoxicity (IC50) Galactose, HepG2 cells in DMEM/10% FBS with galactose
[8] = read-out: Cytotoxicity (IC50) Glucose, HepG2 cells in DMEM/10% FBS supplemented with glucose
[9] = Cytotoxicity (IC50) Galactose, HepG2 cells in DMEM/10% FBS with galactose
[10] = Cytotoxicity (IC50) Glucose, HepG2 cells in DMEM/10% FBS supplemented with glucose

Compound | MIC (Mtb H37Rv [1]; [5]) | MIC (Mtb H37Rv [1]; [6]) | MIC (Mtb H37Rv [1]; read-out: MIC in 7H9 GCas) | MIC (Mtb H37Rv [1]; read-out: MIC in 7H9 ADC) | IC50 (HepG2 cells; [7]) | IC50 (HepG2 cells; [8]) | IC50 (in vitro; [9]) | IC50 (in vitro; [10]) | other results
NNC(=O)c1ccncc1 [INH, isoniazid, reference compound] | 0.23 µM (≈ 0.0315 µg/mL) | 0.16 µM (≈ 0.0219 µg/mL) |  |  |  |  |  |  | MIC (Mtb H37Rv WT): 0.04 µM (≈ 0.00549 µg/mL); MIC (Mtb strain H37Rv; GAST/Fe, read-out: MIC GAST): 0.1 µM (≈ 0.0137 µg/mL); MIC (Mtb strain H37Rv; read-out: MIC 7H9): 0.39 µM (≈ 0.0535 µg/mL); MIC (Mtb strain H37Rv; read-out: MIC Chol): 0.2 µM (≈ 0.0274 µg/mL); MIC (Mtb strain H37Rv; read-out: MIC GBSA/DBSA): 0.3 µM (≈ 0.0411 µg/mL)
Nc1nn2c(=O)cc(-c3ccccc3)[nH]c2c1-c1ccccc1 [Compound P4, 2-Amino-3,5-diphenylpyrazolo[1,5-a]pyrimidin-7(4H)-one] | 28.1 µM (≈ 8.5 µg/mL) | 25 µM (≈ 7.56 µg/mL) | 25 µM (≈ 7.56 µg/mL) |  |  |  |  |  | 
COc1cc(-c2ccccc2)nc2c(-c3ccccc3)c(C)nn12 [Compound P1, 7-Methoxy-2-methyl-3,5-diphenylpyrazolo[1,5-a]pyrimidine] | 100 µM (≈ 31.5 µg/mL) | > 100 µM |  |  |  |  |  |  | 
2-Methyl-3-phenyl-5-(pyridin-3-yl)pyrazolo[1,5-a]pyrimidin-7(4H)-one [Compound P13] |  |  | 12.5 µM | 50.0 µM and 50 µM | > 100 µM | > 100 µM |  |  | 
Cc1nn2c(=O)c(C)c(-c3ccccc3)[nH]c2c1-c1ccccc1 [Compound P6, 2,6-Dimethyl-3,5-diphenylpyrazolo[1,5-a]pyrimidin-7(4H)-one] | 43.8 µM (≈ 13.8 µg/mL) | 3.12 µM (≈ 0.984 µg/mL) |  |  |  |  | > 100 µM | > 100 µM | 
[Cl][Fe]([Cl])[Cl] [FeCl3] |  |  |  |  |  |  |  |  | MIC (Mtb H37Rv [2]; MIC of the iron-modulating additive itself): 500 µM
O=c1cc(-c2ccccc2)[nH]c2c(-c3ccccc3)cnn12 [Compound P22, 3,5-Diphenylpyrazolo[1,5-a]pyrimidin-7(4H)-one] | 12.5 µM (≈ 3.59 µg/mL) | 6.25 µM (≈ 1.8 µg/mL) |  |  |  |  | > 100 µM | > 100 µM | 
O=c1cc(-c2ccc(F)c(F)c2)[nH]c2c(-c3ccc(Cl)cc3)cnn12 [Compound P26, 3-(4-Chlorophenyl)-5-(3,4-difluorophenyl)pyrazolo[1,5-a]pyrimidin-7(4H)-one] | 12.5 µM (≈ 4.47 µg/mL) | 12.5 µM (≈ 4.47 µg/mL) |  |  |  |  | 18.5 µM | 57.2 µM | potency relative to P25 (Mtb H37Rv [1]): 4 fold
Antimycin [reference compound] |  |  |  |  | 3.4 µM | 69.7 µM |  |  | 
5-(3-Fluorophenyl)-2-methyl-3-phenylpyrazolo[1,5-a]pyrimidin-7(4H)-one [Compound P17] |  |  | 1.56 µM | 6.25 µM | 93.8 µM | > 100 µM |  |  | 
O=c1cc(-c2ccc(F)c(F)c2)[nH]c2c(-c3ccccc3)c(C(F)(F)F)nn12 [Compound P27, 5-(3,4-Difluorophenyl)-3-phenyl-2-(trifluoromethyl)pyrazolo[1,5-a]pyrimidin-7(4H)-one] | > 100 µM | 100 µM (≈ 39.1 µg/mL) |  |  |  |  | > 100 µM | > 100 µM | 
Cc1nn2c(=O)cc(-c3ccccc3)[nH]c2c1C [Compound P21, 2,3-Dimethyl-5-phenylpyrazolo[1,5-a]pyrimidin-7(4H)-one] | > 100 µM | 12.5 µM (≈ 2.99 µg/mL) |  |  |  |  | > 100 µM | > 100 µM | 
Cc1nn2c(=O)c(C(F)(F)F)c(-c3ccccc3)[nH]c2c1-c1ccccc1 [Compound P7, 2-Methyl-3,5-diphenyl-6-(trifluoromethyl)pyrazolo[1,5-a]pyrimidin-7(4H)-one] | 12.5 µM (≈ 4.62 µg/mL) | 3.12 µM (≈ 1.15 µg/mL) |  |  |  |  |  |  | 
Cc1nn2c(=O)cc(CN3CCOCC3)[nH]c2c1-c1ccccc1 [Compound P10, 2-Methyl-5-(morpholinomethyl)-3-phenylpyrazolo[1,5-a]pyrimidin-7(4H)-one] | > 100 µM | > 100 µM |  |  |  |  | > 100 µM | > 100 µM | 
CC/C(=C(\c1ccccc1)c1ccc(OCCN(C)C)cc1)c1ccccc1 [Tamoxifen, reference compound] |  |  |  |  |  |  | 5.93 µM | 4.18 µM | 
COc1ccc(-c2cc(=O)n3nc(C)c(-c4ccc(F)cc4)c3[nH]2)cc1 [Compound 4, 3-(4-Fluorophenyl)-5-(4-methoxyphenyl)-2-methylpyrazolo[1,5-a]pyrimidin-7(4H)-one, reference compound] | 9.38 µM (≈ 3.28 µg/mL) | 3.12 µM (≈ 1.09 µg/mL) |  |  |  |  |  |  | MIC (Mtb H37Rv WT): 1.56 µM (≈ 0.545 µg/mL); reporter gene assay DNA damage [3]: no; reporter gene assay cell wall [4]: no; increase in potency under iron-depleted conditions (MIC ratio) (Mtb H37Rv [2]): ≤ 2 fold; MIC (Mtb strain H37Rv; GAST/Fe, read-out: MIC GAST): 3.13 µM (≈ 1.09 µg/mL); MIC (Mtb strain H37Rv; pH 6, read-out: MIC nitrate/butyrate): 6.25 µM (≈ 2.18 µg/mL); MIC (Mtb strain H37Rv; read-out: MIC 7H9): 12.5 µM (≈ 4.37 µg/mL); MIC (Mtb strain H37Rv; read-out: MIC Chol): 12.5 µM (≈ 4.37 µg/mL); MIC (Mtb strain H37Rv; read-out: MIC GBSA/DBSA): 9.4 µM (≈ 3.28 µg/mL)
5-Cyclohexyl-2-methyl-3-phenylpyrazolo[1,5-a]pyrimidin-7(4H)-one [Compound P11] |  |  | >100 µM | >100 µM | > 100 µM | > 100 µM |  |  | 
CC(C)=CCC/C(C)=C/CNCCNC1C2CC3CC(C2)CC1C3 (centres unmarked) [SQ109] |  |  |  |  |  |  |  |  | reporter gene assay cell wall [4]: yes
Cc1nn2c(=O)cc(CC3CCCCC3)[nH]c2c1-c1ccccc1 [Compound P9, 5-(Cyclohexylmethyl)-2-methyl-3-phenylpyrazolo[1,5-a]pyrimidin-7(4H)-one] | > 100 µM | > 100 µM |  |  |  |  | 50.5 µM | 85.8 µM | 
COc1c(N2C[C@@H]3CCCN[C@@H]3C2)c(F)cc2c(=O)c(C(=O)O)cn(C3CC3)c12 [MOX, moxifloxacin] |  |  |  |  |  |  |  |  | reporter gene assay DNA damage [3]: yes
5-(2-Fluorophenyl)-2-methyl-3-phenylpyrazolo[1,5-a]pyrimidin-7(4H)-one [Compound P16] |  |  | 3.12 µM | 12.5 µM | > 100 µM | > 100 µM |  |  | 
5-(4-Fluorophenyl)-2-methyl-3-phenylpyrazolo[1,5-a]pyrimidin-7(4H)-one [Compound P18] |  |  | 1.56 µM | 6.25 µM | > 100 µM | > 100 µM |  |  | 
5-Isobutyl-2-methyl-3-phenylpyrazolo[1,5-a]pyrimidin-7(4H)-one [Compound P12] |  |  | 12.5 µM | 100 µM | > 100 µM | > 100 µM |  |  | 
5-(Furan-3-yl)-2-methyl-3-phenylpyrazolo[1,5-a]pyrimidin-7(4H)-one [Compound P14] |  |  | 3.12 µM | 25.0 µM and 25 µM | > 100 µM | > 100 µM |  |  | 
O=c1[nH]n2c(=O)cc(-c3ccccc3)[nH]c2c1-c1ccccc1 [Compound P3, 3,5-Diphenylpyrazolo[1,5-a]pyrimidine-2,7(1H,4H)-dione] | > 100 µM | > 100 µM |  |  |  |  |  |  | 
Cc1nn2c(=O)nc(-c3ccccc3)[nH]c2c1-c1ccccc1 [Compound P5, 7-Methyl-2,8-diphenylpyrazolo[1,5-a][1,3,5]triazin-4(1H)-one] | > 100 µM | 50 µM (≈ 15.1 µg/mL) | 50 µM (≈ 15.1 µg/mL) |  |  |  |  |  | 
Cc1nn2c(=O)cc(-c3ccccc3)n(C)c2c1-c1ccccc1 [Compound P2, 2,4-Dimethyl-3,5-diphenylpyrazolo[1,5-a]pyrimidin-7(4H)-one] | > 100 µM | 50 µM (≈ 15.8 µg/mL) | 50 µM (≈ 15.8 µg/mL) |  |  |  |  |  | 
Cc1nn2c(=O)cc(Cc3ccccc3)[nH]c2c1-c1ccccc1 [Compound P8, 5-Benzyl-2-methyl-3-phenylpyrazolo[1,5-a]pyrimidin-7(4H)-one] | 75 µM (≈ 23.7 µg/mL) | 3.12 µM (≈ 0.984 µg/mL) |  | 75 µM (≈ 23.7 µg/mL) |  |  | > 100 µM | > 100 µM | 
CC(C)c1nn2c(=O)cc(-c3ccccc3)[nH]c2c1-c1ccccc1 [Compound P23, 2-Isopropyl-3,5-diphenylpyrazolo[1,5-a]pyrimidin-7(4H)-one] | > 100 µM | 12.5 µM (≈ 4.12 µg/mL) |  |  |  |  | 86.2 µM | > 100 µM | 
2-Methyl-3-phenyl-5-(pyrazin-2-yl)pyrazolo[1,5-a]pyrimidin-7(4H)-one [Compound P15] |  |  | 12.5 µM | 50.0 µM and 50 µM | > 100 µM | > 100 µM |  |  | 
